We go through 13 molecules from PubChem BioAssay (NCI).

Common to all, as to test: NCI-60 cell line screen, 48 h
Assay [1] relates to HS 578T breast.
Assay [2] concerns NCI/ADR-RES ovarian.
Assay [3] deals with OVCAR-3 ovarian.
Assay [4] deals with DU-145 prostate.
The subject of assay [5] is A498 renal.
Assay [6] deals with CCRF-CEM leukemia.
For assay [7], the system named is MDA-N.
In assay [8] the test system is MOLT-4 leukemia.
Assay [9] concerns HL-60(TB) leukemia.
Assay [10] concerns ACHN renal.
For assay [11], the system named is UO-31 renal.
Assay [12] concerns SK-MEL-28 melanoma.
In assay [13] the test system is OVCAR-5 ovarian.
Assay [14] deals with U251 CNS.
Assay [15] deals with HCT-15 colon.
Assay [16] relates to MCF7 breast.
Assay [17] relates to SF-295 CNS.
Assay [18] relates to CAKI-1 renal.
The test system of assay [19] is UACC-257 melanoma.
For assay [20], the system named is BT-549 breast.

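Five compound concentrations were applied to cells in 96-well plates for 48 hours; endpoints were derived by simple linear interpolation of the resulting dose-response curve. At the TGI there is no net growth.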

Consider `CC(=O)OC/C=C\Cn1ncc(=O)[nH]c1=O`, for which the TGI was more than 100 µM in assay [1]; 50.6 µM in assay [2]; 69.3 µM in assay [3]; 42.8 µM in assay [4]; 31.9 µM in assay [5]; 50.4 µM in [6]. Further, the TGI in assay [7] turned out to be 31.8 µM; in assay [8] it was 44 µM; in [9], 30.1 µM; in assay [10] it was 43.8 µM; in [11], 37.5 µM; in assay [12], 50.2 µM. The TGI in assay [13] is 32.3 µM; in assay [14], 28.2 µM; in assay [15] it was 37.5 µM; in assay [16], 45.1 µM.

Take `OCC1NC(CO)C(O)C1O` (centres undefined): the TGI in [1], in [2], in [3], in assay [4], in [5] and in assay [6] was more than 100 µM in each case. Moreover, the TGI in assay [7], in assay [8], in assay [17], in assay [9], in assay [18] and in assay [11] was more than 100 µM each time. Besides, the TGI in [12], in [19], in assay [13], in assay [14], in assay [15] and in [16] was more than 100 µM throughout. This molecule registered a TGI in [20] of more than 100 µM.

For `CCOP(=O)(OCC)C(Cc1c[nH]c2ccccc12)C(=O)O` (centres undefined), the TGI in [1], in [2], in assay [3], in assay [4], in [5] and in assay [6] was more than 100 µM each time. For the same molecule, the TGI in assay [7], in assay [8], in assay [17], in assay [9], in assay [18] and in assay [10] was more than 100 µM each time. Besides, the TGI in assay [11], in assay [12], in [19], in assay [13], in assay [14] and in assay [15] was more than 100 µM in each case. Besides, in assay [16], the TGI is more than 100 µM.

For the molecule `O=C(N[C@H](CO)[C@H](O)c1ccc([N+](=O)[O-])cc1)C(Cl)Cl`, the TGI in [2], in [3], in [4], in [5], in [6] and in assay [7] was more than 100 µM each time. In addition, the TGI in assay [8], in assay [17], in assay [9], in assay [18], in assay [10] and in [11] was more than 100 µM each time. In addition, the TGI in [12], in assay [19], in assay [13], in [14], in assay [15] and in [16] was more than 100 µM each time. Moreover, the TGI in assay [20] was more than 100 µM.

As to `COc1ncnc2c(Cl)c(C(O)c3ccccc3)c(Cl)cc12` (centres undefined), the TGI in assay [1] was 49.9 µM; in [2], more than 100 µM; in [3] it was more than 100 µM; in assay [4], more than 100 µM; in assay [5] it was 53.2 µM; in [7], 18.7 µM. Further, the TGI is more than 100 µM in assay [8]; 68.2 µM in assay [17]; more than 100 µM in [9]; more than 100 µM in assay [18]; 97.2 µM in assay [10]; more than 100 µM in assay [11]. Moreover, the TGI in assay [12], in assay [19], in [13], in assay [14], in [15] and in [16] was more than 100 µM throughout. Besides, the TGI in assay [20] was 66.1 µM.

`O=C(Nc1ccc(C(F)(F)F)cc1[N+](=O)[O-])C(=O)Nn1c(=S)[nH]c2ccccc2c1=O`: the TGI in assay [5], in assay [6], in [8], in assay [17], in assay [9] and in [18] was more than 100 µM in each case. Moreover, the TGI in assay [10], in assay [11], in assay [12], in assay [19], in [13] and in assay [14] was more than 100 µM throughout. The TGI in assay [15] was more than 100 µM.

As for `Nc1ccc(C2(c3ccc(N)cc3)C3CC4CC(C3)CC2C4)cc1`, the TGI was determined as 23.4 µM in assay [2]; 25.1 µM in [3]; 41.3 µM in assay [5]; 25.3 µM in assay [6]; 37.6 µM in assay [7]; 28.2 µM in assay [8]. For the same molecule, the TGI in [17] was 20.3 µM; in assay [9], 46.6 µM; in [18], 31.9 µM; in [10], 32.7 µM; in [11], 33.9 µM; in assay [12], more than 100 µM. For the same molecule, the TGI in assay [19] came to 36.2 µM; in assay [13], 32.7 µM; in assay [14] it was 37 µM; in assay [15] it was 37.2 µM; in assay [16] it was 43.7 µM; in [20], 25.2 µM.

On to `Cc1ccc(S(=O)(=O)NCCCSCCN)cc1`, for which the TGI in [1], in assay [2], in assay [3], in [4], in [5] and in assay [6] was more than 100 µM each time. Besides, the TGI in [7], in [8], in [17], in assay [9], in [10] and in [11] was more than 100 µM in each case. The TGI in [12], in assay [19], in [14], in assay [15] and in assay [16] was more than 100 µM in each case.

As to `COc1ccc(/C=C/c2cc(O)cc(OC3OC(CO)C(O)C(O)C3O)c2)cc1O` (centres undefined), the TGI in assay [1], in assay [2], in assay [3], in assay [4], in assay [5] and in [6] was more than 100 µM in each case. The TGI in [7], in assay [8], in [17], in assay [9], in assay [18] and in [10] was more than 100 µM in each case. Besides, the TGI in assay [11], in [12], in assay [19], in assay [13], in [14] and in [15] was more than 100 µM throughout. The TGI in assay [16] and in assay [20] was more than 100 µM in each case.

Consider `O=S1(=O)C[C@H](NCc2ccccc2)[C@H](NCc2ccccc2)C1`, for which the TGI in assay [1], in [2], in assay [3], in assay [4], in assay [6] and in [7] was more than 100 µM each time. Further, the TGI in assay [8], in assay [17], in assay [18], in [10], in [11] and in assay [12] was more than 100 µM each time. The TGI in [19], in assay [13], in assay [14], in assay [16] and in assay [20] was more than 100 µM each time.

As for `COc1ccc(CCn2ccc(C)n2)c(OC)c1`, the TGI in assay [1], in assay [2], in [3], in [4], in [6] and in assay [7] was more than 100 µM throughout. For the same molecule, the TGI in [8], in [17], in assay [18], in assay [10], in assay [11] and in assay [12] was more than 100 µM throughout. Besides, the TGI in assay [19], in [13], in assay [14], in assay [15], in assay [16] and in assay [20] was more than 100 µM in each case.

Regarding `CC=C/C=C/[C@@H]1O[C@](O)([C@H](CC)C(=O)NC/C=C/C=C(\C)[C@@H](OC)[C@@H](C)[C@@H]2O[C@H](/C=C/C=C/C=C(\C)C(=O)c3c(O)cc[nH]c3=O)[C@H](O)[C@@H]2O)[C@H](O)[C@H](O)C1(C)C`, the TGI in [1], in assay [2], in [3], in assay [5], in [8] and in assay [17] was more than 100 µM each time. The TGI in assay [9], in assay [10], in assay [11], in assay [12], in [19] and in assay [13] was more than 100 µM throughout. Moreover, the TGI in [14], in assay [15] and in assay [16] was more than 100 µM throughout.

With `O=Nn1c2ccccc2c2ccccc21`, the TGI in [1] is more than 100 µM; in [2], more than 100 µM; in [3], more than 100 µM; in assay [4], more than 100 µM; in [5], 75.7 µM; in assay [6], more than 100 µM. Further, the TGI in assay [8], in assay [17], in assay [9], in [18], in [10] and in assay [11] was more than 100 µM each time. Further, the TGI in assay [12], in assay [19], in [13], in assay [14], in [15] and in [16] was more than 100 µM each time. The molecule further displayed a TGI in assay [20] of more than 100 µM.
